According to patent publication US20130079348A1, “COMPOUNDS THAT MODULATE INTRACELLULAR CALCIUM” (CalciMedica, Inc., priority 2010, published 2013):

Molecular target: T1, recombinant human STIM1 and Orai1 (HEK-293 cells) (Homo sapiens, UniProt Q96D31)
T1 construct: c-myc (C); expressed in transfected cells; host or cells: HEK-293
Test: Fluorescence-based assay of store-operated calcium entry in Orai1/STIM1 stable cells
Assay type: cell-based
Settings: concentration that inhibited 50% of the Peak-Basal fluorescence signal; 30 min compound incubation; read-out: IC50(μM) JR251
Procedure: A. Fluorescence-based Assay of Store-Operated Calcium Entry in Orai1/STIM1 Stable Cells.
Cells stably expressing recombinant human STIM1 and Orai1 were generated by transfecting a human Orai1 expression plasmid (pcDNA3.1-Orai1-cmyc) into HEK-293 cells stably overexpressing human STIM1 (Roos et al. 2005 JCB 169(3): 435-445). Colonies of cells stably expressing both STIM1 and Orai1 proteins were selected and then subcloned by limiting dilution. Cells were cultured at 37° C./6% CO2 in complete medium with 10% FBS and appropriate selection markers.
The day prior to performing the assay Orai1/STIM1 stable cells were plated in 50 μL of complete medium at 90-95% confluence in a 384 well plate. Cells were grown at 37° C./6% CO2 overnight. On the day of the assay, 1.5 μM fluo-4-AM (Invitrogen) in complete medium was added to the cells, which were then incubated for 1 hour at RT. Cells were washed once in Ca^2+-free HBSS (Hank's buffered saline solution) and 35 μl of Ca^2+-free HBSS was added to each well. Test compounds were added to wells in a 10 μL Ca^2+-free HBSS solution, prepared at 4.5× the desired final concentration, and incubated for 30 minutes at RT. The initial baseline fluorescence signal was then measured with a FLIPR^384 (Molecular Devices) plate reader. Calcium entry was initiated by adding 5 μl of 10× CaCl2 (10 mM) in HBSS, and changes in cellular fluorescence were measured with the FLIPR^384 plate reader. In each well, the magnitude of the fluorescence signal as a result of calcium entry into the cell was determined by calculating the difference between the peak fluorescence signal measured after calcium addition and the initial baseline fluorescence signal (designated Peak-Basal). IC50 values were typically calculated as the concentration that inhibited 50% of the Peak-Basal signal (Table A).

T1 sequence (Q96D31 whole entry): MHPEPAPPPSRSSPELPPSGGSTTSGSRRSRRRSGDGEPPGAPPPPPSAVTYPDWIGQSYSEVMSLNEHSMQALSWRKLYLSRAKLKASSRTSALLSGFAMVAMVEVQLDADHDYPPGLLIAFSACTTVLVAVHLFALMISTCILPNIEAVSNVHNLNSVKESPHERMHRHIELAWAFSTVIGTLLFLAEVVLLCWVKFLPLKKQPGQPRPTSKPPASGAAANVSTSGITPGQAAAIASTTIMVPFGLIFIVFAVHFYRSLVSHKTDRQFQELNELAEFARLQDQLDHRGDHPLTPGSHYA

`Cc1ccc(-c2csc(NC(=O)c3nc4cccc(N)c4s3)c2C(=O)O)c(F)c1F` [Compound 18] and `Cc1ccc(-c2csc(NC(=O)c3nc4cccc(O)c4s3)c2C(=O)O)c(F)c1F` [Compound 25] fall in the same range of IC50: 0.5 to 1 µM for the first, 0.5 to 1 µM for the second.

`COc1cccc2cc(C(=O)Nc3scc(-c4ccc(Cl)cc4)c3C(=O)O)nn12` [Compound 9] and `COc1cccc2sc(C(=O)Nc3scc(-c4ccc(Cl)cc4)c3C(=O)O)nc12` [Compound 20] cannot be ordered by IC50: 0.5 to 1 µM for the first, at most 0.5 µM for the second.

`COc1ccc2sc(C(=O)Nc3scc(-c4ccc(Cl)cc4)c3C(=O)O)nc2c1` [Compound 19] and `O=C(Nc1scc(-c2ccc(Cl)cc2)c1C(=O)O)c1nc2cccc(Cl)c2s1` [Compound 21] fall in the same range of IC50: 0.5 to 1 µM for the first, 0.5 to 1 µM for the second.

`Cc1ccc(-c2csc(NC(=O)c3nc4c(F)cccc4s3)c2C(=O)O)c(F)c1` [Compound 14] and `O=C(Nc1scc(-c2ccc(Cl)cc2F)c1C(=O)O)c1nc2c(F)cccc2s1` [Compound 13] fall in the same range of IC50: 0.5 to 1 µM for the first, 0.5 to 1 µM for the second.

`Cc1ccc(-c2scc(NC(=O)c3cc4c(F)cccn4n3)c2C(=O)O)c(F)c1` [Compound 1] and `Cc1ccc(-c2csc(NC(=O)c3cc4cccc(C)n4n3)c2C(=O)O)c(F)c1` [Compound 2] cannot be ordered by IC50: at most 0.5 µM for the first, at most 0.5 µM for the second.

`Cc1ccc(-c2csc(NC(=O)c3nc4cccc(Cl)c4s3)c2C(=O)O)c(F)c1F` [Compound 22] and `Cc1ccc(-c2csc(NC(=O)c3nc4ccc(F)cc4s3)c2C(=O)O)c(F)c1F` [Compound 11] cannot be ordered by IC50: 0.5 to 1 µM for the first, at most 0.5 µM for the second.

First: CC(=O)Nc1cccc2nc(C(=O)Nc3scc(-c4ccc(Cl)cc4)c3C(=O)O)sc12 [Compound 24]
Second: Nc1cccc2nc(C(=O)Nc3scc(-c4ccc(Cl)cc4)c3C(=O)O)sc12 [Compound 17]
The IC50 of the first is higher: 1 to 10 µM for the first, at most 0.5 µM for the second.

`Cc1ccc(-c2csc(NC(=O)c3cc(F)cc(F)c3O)c2C(=O)O)c(F)c1F` [Compound 27] and `Cc1ccc(-c2csc(NC(=O)c3ccc(F)c(F)c3O)c2C(=O)O)c(F)c1F` [Compound 29] cannot be ordered by IC50: at most 0.5 µM for the first, at most 0.5 µM for the second.

First: O=C(O)c1c(-c2ccc(Cl)cc2)csc1NC(=O)N1Cc2cccc(F)c2C1 [Compound 28]
Second: O=C(Nc1scc(-c2ccc(Cl)cc2)c1C(=O)O)c1cc2c(F)cc(F)cn2n1 [Compound 5]
The IC50 of the first is lower: at most 0.5 µM for the first, 1 to 10 µM for the second. The first is the more potent here.

`Cc1ccc(-c2csc(NC(=O)c3c(O)ccc(F)c3F)c2C(=O)O)c(F)c1F` [Compound 26] and `Cc1ccc(-c2csc(NC(=O)c3sc4ccccc4[n+]3[O-])c2C(=O)O)c(F)c1F` [Compound 23] cannot be ordered by IC50: at most 0.5 µM for the first, 0.5 to 1 µM for the second.

In the case of `Cc1ccc(-c2csc(NC(=O)c3nc4ccc(F)cc4s3)c2C(=O)O)c(F)c1` [Compound 12], the IC50 is reported as 0.5 to 1 µM.

Tested on: RBL-2H3 cells
Test: Fluorescence-based assay of store-operated calcium entry in RBL-2H3 cells
Assay type: cell-based
Settings: Rattus norvegicus, thapsigargin store depletion, 50% of the Upslope inhibited
Procedure: B. Fluorescence-based Assay of Store-Operated Calcium Entry in RBL-2H3 Cells.
RBL-2H3 cells were obtained from ATCC and maintained in complete medium with 10% FBS at 37° C./6% CO2.
The day prior to performing the assay, RBL-2H3 cells are plated in 50 μL of complete medium in a 384 well plate. Cells are grown at 37° C./6% CO2 overnight and grow to 50-60% confluence by the next day. On the assay day, 1.5 μM Fluo-4-AM dye (Invitrogen) in complete medium is added and incubated for 1 hour at RT. Cells are washed twice in Ca^2+-free HBSS buffer and 35 μL Ca^2+-free HBSS buffer is added to each well. 10 μL of a test compound prepared in a Ca^2+-free HBSS solution at 4.5× of the desired concentration is added to a well and incubated for 5 minutes at RT. 10 μL of thapsigargin prepared in a Ca^2+-free HBSS solution at 5.5× of the desired concentration (5.5 uM) is added to each well and incubated for an additional 25 minutes. The initial baseline fluorescence signal is measured with a FLIPR^384 (Molecular Devices) plate reader. 5 μL of 12× calcium in HBSS (12 mM) is added and changes in cellular fluorescence are measured with the FLIPR^384 plate reader. In each well, the change in the fluorescent signal as a function of time due to calcium entry into the cell is determined by calculating the difference between the fluorescent signal measured 7 seconds after calcium addition and the initial baseline fluorescence signal at time zero (t=0). This parameter is designated Upslope. The IC50 value is calculated as the concentration at which 50% of the Upslope is inhibited.

Compared with `Cc1ccc(-c2csc(NC(=O)c3nc4cccc(N)c4s3)c2C(=O)O)c(F)c1F` [Compound 18], `Cc1ccc(-c2csc(NC(=O)c3nc4cccc(O)c4s3)c2C(=O)O)c(F)c1F` [Compound 25] is higher in IC50: at most 0.5 µM for the first, 1 to 10 µM for the second.

Compared with `COc1cccc2cc(C(=O)Nc3scc(-c4ccc(Cl)cc4)c3C(=O)O)nn12` [Compound 9], `COc1cccn2nc(C(=O)Nc3scc(-c4ccc(Cl)cc4)c3C(=O)O)cc12` [Compound 7] is lower in IC50: 1 to 10 µM for the first, 0.5 to 1 µM for the second.

`COc1ccc2sc(C(=O)Nc3scc(-c4ccc(Cl)cc4)c3C(=O)O)nc2c1` [Compound 19] and `COc1cccc2sc(C(=O)Nc3scc(-c4ccc(Cl)cc4)c3C(=O)O)nc12` [Compound 20] cannot be ordered by IC50: at most 0.5 µM for the first, 0.5 to 1 µM for the second.

`COc1cccn2nc(C(=O)Nc3scc(-c4ccc(C)c(F)c4F)c3C(=O)O)cc12` [Compound 10] and `Cc1ccc(-c2csc(NC(=O)c3cc4ccc(F)cn4n3)c2C(=O)O)c(F)c1F` [Compound 8] fall in the same range of IC50: 0.5 to 1 µM for the first, 0.5 to 1 µM for the second.

`Cc1ccc(-c2csc(NC(=O)c3nc4c(F)cccc4s3)c2C(=O)O)c(F)c1` [Compound 14] and `O=C(Nc1scc(-c2ccc(Cl)cc2F)c1C(=O)O)c1nc2c(F)cccc2s1` [Compound 13] cannot be ordered by IC50: 0.5 to 1 µM for the first, at most 0.5 µM for the second.

`Cc1ccc(-c2scc(NC(=O)c3cc4c(F)cccn4n3)c2C(=O)O)c(F)c1` [Compound 1] and `Cc1ccc(-c2csc(NC(=O)c3cc4cccc(C)n4n3)c2C(=O)O)c(F)c1` [Compound 2] cannot be ordered by IC50: at most 0.5 µM for the first, at most 0.5 µM for the second.

First: Cc1ccc(-c2csc(NC(=O)c3cc4cccc(C)n4n3)c2C(=O)O)c(F)c1F [Compound 3]
Second: Cc1ccc(-c2csc(NC(=O)c3nn4ccccc4c3N)c2C(=O)O)c(F)c1F [Compound 4]
The IC50 of the first is lower: at most 0.5 µM for the first, 1 to 10 µM for the second.

`Cc1ccc(-c2csc(NC(=O)c3cc4c(F)cc(F)cn4n3)c2C(=O)O)c(F)c1F` [Compound 6] and `Cc1ccc(-c2csc(NC(=O)c3cc(F)cc(F)c3O)c2C(=O)O)c(F)c1F` [Compound 27] cannot be ordered by IC50: 0.5 to 1 µM for the first, at most 0.5 µM for the second.

`Cc1ccc(-c2csc(NC(=O)c3nc4cccc(Cl)c4s3)c2C(=O)O)c(F)c1F` [Compound 22] and `Cc1ccc(-c2csc(NC(=O)c3nc4ccc(F)cc4s3)c2C(=O)O)c(F)c1F` [Compound 11] cannot be ordered by IC50: at most 0.5 µM for the first, at most 0.5 µM for the second.

`CC(=O)Nc1cccc2nc(C(=O)Nc3scc(-c4ccc(Cl)cc4)c3C(=O)O)sc12` [Compound 24] and `O=C(Nc1scc(-c2ccc(Cl)cc2)c1C(=O)O)c1nc2cccc(Cl)c2s1` [Compound 21] cannot be ordered by IC50: 0.5 to 1 µM for the first, at most 0.5 µM for the second.

`O=C(O)c1c(-c2ccc(Cl)cc2)csc1NC(=O)N1Cc2cccc(F)c2C1` [Compound 28] and `Nc1cccc2nc(C(=O)Nc3scc(-c4ccc(Cl)cc4)c3C(=O)O)sc12` [Compound 17] cannot be ordered by IC50: at most 0.5 µM for the first, at most 0.5 µM for the second.

`Cc1ccc(-c2csc(NC(=O)c3nc4cc(C(F)(F)F)ccc4s3)c2C(=O)O)c(F)c1F` [Compound 15] and `Cc1ccc(-c2csc(NC(=O)c3nc4ccc(Br)cc4s3)c2C(=O)O)c(F)c1F` [Compound 16] cannot be ordered by IC50: 0.5 to 1 µM for the first, at most 0.5 µM for the second.

`Cc1ccc(-c2csc(NC(=O)c3ccc(F)c(F)c3O)c2C(=O)O)c(F)c1F` [Compound 29] and `Cc1ccc(-c2csc(NC(=O)c3c(O)ccc(F)c3F)c2C(=O)O)c(F)c1F` [Compound 26] cannot be ordered by IC50: at most 0.5 µM for the first, at most 0.5 µM for the second.

`O=C(Nc1scc(-c2ccc(Cl)cc2)c1C(=O)O)c1cc2c(F)cc(F)cn2n1` [Compound 5] and `Cc1ccc(-c2csc(NC(=O)c3nc4ccc(F)cc4s3)c2C(=O)O)c(F)c1` [Compound 12] cannot be ordered by IC50: 0.5 to 1 µM for the first, at most 0.5 µM for the second.

Work on `Cc1ccc(-c2csc(NC(=O)c3sc4ccccc4[n+]3[O-])c2C(=O)O)c(F)c1F` [Compound 23] yielded an IC50 of at most 0.5 µM.

Tested on: Jurkat cells
Test: not given
Settings: Jurkat cells and colon cancer cells; cited from earlier work

For `Cc1nnsc1C(=O)Nc1ccc(-n2nc(C(F)(F)F)cc2C(F)(F)F)cc1` [BTP-2], the inhibition of proliferation is listed as “inhibits”.

Same assay, conditions: Jurkat cells; cited from earlier work

For `Cc1nnsc1C(=O)Nc1ccc(-n2nc(C(F)(F)F)cc2C(F)(F)F)cc1` [BTP-2], the “inhibition of SOCE” value is given as “inhibits”.

Molecular target: STIM1 and Orai1 in HEK293 cells (Homo sapiens, UniProt Q96D31)
Test: not given
Settings: HEK293 cells expressing STIM1 and Orai1; cited from earlier work

STIM1 and Orai1 in HEK293 cells, sequence (Q96D31 whole entry): as above

In the case of `NCCOB(c1ccccc1)c1ccccc1` [2-aminoethoxydiphenylborate], the “block of store-operated Ca2+ entry” value is given as “completely blocked”.
